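These data come from cells grown in 96-well plates and exposed to compound for 48 hours at five concentrations. GI50 is the concentration that inhibits growth by half.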 Active and inactive are the calls of the source. Cut-off read from the data, not from the text of the source: active = GI50 up to about 1.1 µM and inactive = higher.
Columns and labels:
Test in all cases: growth of human tumour cells (NCI), 48 h
ACHN = system: ACHN
MOLT-4 = system: MOLT-4
HOP-62 = system: HOP-62
HCC 2998 = system: HCC 2998
HCT-15 = system: HCT-15
NCI-H522 = system: NCI-H522
SNB-19 = system: SNB-19
HT-29 = system: HT-29
SK-MEL-2 = system: SK-MEL-2
UO-31 = system: UO-31
COLO 205 = system: COLO 205
EKVX = system: EKVX
NCI-H460 = system: NCI-H460
SF-539 = system: SF-539
M14 = system: M14
OVCAR-8 = system: OVCAR-8
A549 = system: A549
SK-OV-3 = system: SK-OV-3
HL-60 = system: HL-60
NCI-H226 = system: NCI-H226

Row | Structure (SMILES) | GI50 (ACHN) | GI50 (MOLT-4) | GI50 (HOP-62) | GI50 (HCC 2998) | GI50 (HCT-15) | GI50 (NCI-H522) | GI50 (SNB-19) | GI50 (HT-29) | GI50 (SK-MEL-2) | GI50 (UO-31) | GI50 (COLO 205) | GI50 (EKVX) | GI50 (NCI-H460) | GI50 (SF-539) | GI50 (M14) | GI50 (OVCAR-8) | GI50 (A549) | GI50 (SK-OV-3) | GI50 (HL-60) | GI50 (NCI-H226)
1 | O[C@@]12Cc3c([nH]c4ccccc34)[C@@H]3Oc4cccc5c4[C@@]31CCN(CC1CC1)[C@@H]2C5 | 20.4 µM (inactive) | 19.6 µM (inactive) | 31.8 µM (inactive) | 17.7 µM (inactive) | 18.1 µM | 22.8 µM (inactive) | 33 µM (inactive) | 15.9 µM (inactive) | 26.5 µM (inactive) | 18.9 µM (inactive) | 31.4 µM (inactive) | 24.5 µM (inactive) | 46.1 µM (inactive) | 20.9 µM (inactive) | 23.7 µM (inactive) | 15.1 µM (inactive) | 27 µM (inactive) |  |  | 
2 | CCNc1cnc2c(n1)c(=O)n(C)c(=O)n2C | > 100 µM (inactive) | > 100 µM (inactive) | > 100 µM (inactive) | > 100 µM (inactive) | > 100 µM | > 100 µM (inactive) | > 100 µM (inactive) | > 100 µM (inactive) | > 100 µM (inactive) | > 100 µM (inactive) | > 100 µM (inactive) | 34.1 µM (inactive) | > 100 µM (inactive) | > 100 µM (inactive) | > 100 µM (inactive) | > 100 µM (inactive) | > 100 µM (inactive) | > 100 µM (inactive) | > 100 µM (inactive) | 
3 | CN1CCN(P2(=S)Oc3ccc4ccccc4c3-c3c(ccc4ccccc34)O2)CC1 |  | 15.1 µM (inactive) | 26.3 µM (inactive) | 21 µM (inactive) | 28.7 µM | 24.2 µM (inactive) | 39.6 µM (inactive) | 19.6 µM (inactive) | 18.8 µM (inactive) | 18.4 µM (inactive) | 16.5 µM (inactive) | 29.6 µM (inactive) | 19.5 µM (inactive) | 21.5 µM (inactive) |  | 37.2 µM (inactive) | 40.3 µM (inactive) | > 71.3 µM (inactive) | 13.1 µM (inactive) | 26.2 µM (inactive)
4 | c1ccc(CCn2cncn2)cc1 | > 100 µM (inactive) | > 100 µM (inactive) | > 100 µM (inactive) | > 100 µM (inactive) | > 100 µM | > 100 µM (inactive) | > 100 µM (inactive) | > 100 µM (inactive) |  | > 100 µM (inactive) | > 100 µM (inactive) | > 100 µM (inactive) | > 100 µM (inactive) | > 100 µM (inactive) | > 100 µM (inactive) |  | > 100 µM (inactive) | > 100 µM (inactive) | > 100 µM (inactive) | > 100 µM (inactive)
5 | CC(C)=CCC/C(C)=C/CCC1(C)C=Cc2c(c3ccccc3oc2=O)O1 (stereo not drawn) |  | 20.6 µM (inactive) | 13.2 µM (inactive) | 17.7 µM (inactive) | 16 µM | 14.7 µM (inactive) | 20.5 µM (inactive) | 18.8 µM (inactive) | 17.4 µM (inactive) | 15.5 µM (inactive) | 19.1 µM (inactive) | 18.5 µM (inactive) | 15.8 µM (inactive) | 16.1 µM (inactive) |  | 16.7 µM (inactive) | 17.5 µM (inactive) | 27.3 µM (inactive) | 23.8 µM (inactive) | 16.1 µM (inactive)
6 | COc1cc2c(cc1OC)-c1cc3ccccc3c[n+]1CC2 | > 100 µM (inactive) | > 100 µM (inactive) | > 100 µM (inactive) | > 100 µM (inactive) |  | 18.8 µM (inactive) | > 100 µM (inactive) | > 100 µM (inactive) | > 100 µM (inactive) | > 100 µM (inactive) | 37.6 µM (inactive) | > 100 µM (inactive) | > 100 µM (inactive) | > 100 µM (inactive) | > 100 µM (inactive) | > 100 µM (inactive) | > 100 µM (inactive) | > 100 µM (inactive) |  | > 100 µM (inactive)
7 | CCCCCCCCCCCCCCCCCc1cc(Cl)nc(Cl)n1 | > 100 µM (inactive) | > 100 µM (inactive) | > 100 µM (inactive) | > 100 µM (inactive) | > 100 µM |  | > 100 µM (inactive) | > 100 µM (inactive) | > 100 µM (inactive) | > 100 µM (inactive) |  | > 100 µM (inactive) | > 100 µM (inactive) | > 100 µM (inactive) | > 100 µM (inactive) | > 100 µM (inactive) | > 100 µM (inactive) | > 100 µM (inactive) | 50.8 µM (inactive) | > 100 µM (inactive)
8 | Cc1cc(C)n(-c2c(O)ccc(O)c2-n2nc(C)cc2C)n1 | > 100 µM (inactive) | > 100 µM (inactive) | > 100 µM (inactive) | > 100 µM (inactive) | > 100 µM | > 100 µM (inactive) | > 100 µM (inactive) | > 100 µM (inactive) | > 100 µM (inactive) | > 100 µM (inactive) | > 100 µM (inactive) | > 100 µM (inactive) | > 100 µM (inactive) | > 100 µM (inactive) | > 100 µM (inactive) | > 100 µM (inactive) | > 100 µM (inactive) | > 100 µM (inactive) | > 100 µM (inactive) | 
9 | Nc1ccc(Sc2nnc(N)s2)cc1 | > 100 µM (inactive) | > 100 µM (inactive) | > 100 µM (inactive) | > 100 µM (inactive) | > 100 µM | > 100 µM (inactive) | > 100 µM (inactive) |  |  | > 100 µM (inactive) | > 100 µM (inactive) | > 100 µM (inactive) | > 100 µM (inactive) | > 100 µM (inactive) | > 100 µM (inactive) | > 100 µM (inactive) | > 100 µM (inactive) | > 100 µM (inactive) | > 100 µM (inactive) | 
10 | CC1=NC=C(O)c2ccccc2O1 | > 100 µM (inactive) | > 100 µM (inactive) | > 100 µM (inactive) | > 100 µM (inactive) | > 100 µM |  | > 100 µM (inactive) | > 100 µM (inactive) | > 100 µM (inactive) | 85.5 µM (inactive) | > 100 µM (inactive) | > 100 µM (inactive) | > 100 µM (inactive) | > 100 µM (inactive) | > 100 µM (inactive) | > 100 µM (inactive) | > 100 µM (inactive) | > 100 µM (inactive) | > 100 µM (inactive) | 
11 | CSc1cc(-c2cc3ccccc3o2)oc(=O)c1C#N | > 100 µM (inactive) | > 100 µM (inactive) |  | > 100 µM (inactive) | > 100 µM |  | 68.9 µM (inactive) | > 100 µM (inactive) | > 100 µM (inactive) | 37.5 µM (inactive) | > 100 µM (inactive) | > 100 µM (inactive) | > 100 µM (inactive) | > 100 µM (inactive) | > 100 µM (inactive) | > 100 µM (inactive) | > 100 µM (inactive) |  | 18.9 µM (inactive) | 0.165 µM (active)
12 | COC1=C2CC(C)CC(OC)C(O)C(C)/C=C(\C)C(OC(N)=O)C(OC)/C=C\C=C(/C)C(=O)NC(=C(/C=N/C(C)(C)C)C1=O)C2=O (stereo not drawn) |  | 3.44 µM (inactive) | 5.86 µM (inactive) | 1.68 µM (inactive) | 6.28 µM | 0.279 µM (active) | 4.85 µM (inactive) | 3.19 µM (inactive) | 4.85 µM (inactive) | 8.81 µM (inactive) | 1.31 µM (inactive) | 3.64 µM (inactive) | 2.44 µM (inactive) | 1.66 µM (inactive) |  | 5 µM (inactive) | 2.47 µM (inactive) | 24.7 µM (inactive) | 0.479 µM (active) | 1.75 µM (inactive)
13 | CCOC(=O)/C=C/c1c(C)[nH]c(=O)[nH]c1=O |  | > 250 µM (inactive) | > 250 µM (inactive) | > 250 µM (inactive) | > 250 µM | 102 µM (inactive) | > 250 µM (inactive) | > 250 µM (inactive) | > 250 µM (inactive) | > 250 µM (inactive) | > 250 µM (inactive) | > 250 µM (inactive) | > 250 µM (inactive) | > 250 µM (inactive) |  | 212 µM (inactive) | > 250 µM (inactive) | > 141 µM (inactive) | > 250 µM (inactive) | > 250 µM (inactive)
14 | COC(=O)C1=C(C(=O)OC)C2(C)C=CC1O2 (stereo not drawn) | 5.78 µM (inactive) |  | 34.9 µM (inactive) | 16.2 µM (inactive) | 16 µM | 2 µM (inactive) | > 100 µM (inactive) | 15.2 µM (inactive) | 21.4 µM (inactive) | 4.51 µM (inactive) | 4.22 µM (inactive) | 22 µM (inactive) | > 100 µM (inactive) | 18.9 µM (inactive) | 17.3 µM (inactive) | 17.4 µM (inactive) | 99.8 µM (inactive) | > 100 µM (inactive) |  | 19.6 µM (inactive)
15 | C/C(=N\NS(=O)(=O)c1ccccc1)c1ccccc1 |  | > 100 µM (inactive) | > 100 µM (inactive) | > 100 µM (inactive) | > 100 µM | > 100 µM (inactive) | > 100 µM (inactive) | > 100 µM (inactive) | > 100 µM (inactive) | > 100 µM (inactive) | > 100 µM (inactive) | > 100 µM (inactive) | > 100 µM (inactive) | > 100 µM (inactive) |  | > 100 µM (inactive) | > 100 µM (inactive) | > 100 µM (inactive) | > 100 µM (inactive) | > 80.4 µM (inactive)
16 | COc1cc(O)cc(/C=C/c2ccc(O)cc2)c1 | 6.31 µM (inactive) | 36 µM (inactive) | 28.8 µM (inactive) |  | 10.1 µM | 30.1 µM (inactive) | 36.6 µM (inactive) | 40.4 µM (inactive) | 52.7 µM (inactive) | 39.1 µM (inactive) | > 100 µM (inactive) | 28.4 µM (inactive) | 44.7 µM (inactive) | 35.6 µM (inactive) | 24.3 µM (inactive) | 23.8 µM (inactive) | 27.7 µM (inactive) | > 100 µM (inactive) | 27.2 µM (inactive) | 24.7 µM (inactive)
